Measured values taken from patent publication US8372430B2, “Compositions, methods, and kits useful for the alleviation of gastrointestinal effects” (priority 2002, dated 2013).

What was measured:
[1] = system: male, Sprague-Dawley rats; test: Fur appearance score: separation of excreted dietary oil from fecal matter in rats fed food compositions; assay type: in vivo, rat; conditions: food with 0.04% orlistat, no calcium stearate, ad libitum 11 days, assessed days 7 and 11; scale 1 (no oil visible on fur) to 5 (>90% of fur oiled)
Text: Groups of male, Sprague-Dawley rats (commercially available from Harlan Labs, Indianapolis, Ind.), were presented with a composition, which was a food composition, containing either 0.04% orlistat, by weight of the composition, or the combination of 0.04% orlistat and 1%, 0.5%, or 0.25% calcium stearate, all by weight of the composition. The fat content of each composition provided 30% of the consumed energy of the rat. Another group of rats (also male, Sprague Dawley, commercially available from Harlan Labs, Indianapolis, Ind.) were presented with the same food compositions, except devoid of orlistat and calcium stearate (“control compositions”). All rats consumed their respective compositions ad libitum for 11 days.
On the seventh and eleventh days of these dietary regimens, the appearance of each rat was viewed by assessors not aware of the identity of composition consumed by the rats. Separation of oil from the other fecal matter of each rat was determined by the use of a scale that quantified the fraction of the rat's fur that was coated with excreted dietary oil. […] Intermediate scores of “2,” “3,” and “4” indicated partial covering of the rat's fur, with “2” corresponding to approximately 10% coverage or less, “3” corresponding to approximately greater than 10% to approximately 50% coverage, and “4” corresponding to approximately greater than 50% to approximately 90% coverage.

overweight human subject [2] = test: Example 5: XENICAL regimen changed to XENICAL plus behenic acid capsules in an overweight human subject; assay type: in vivo; conditions: behenic acid 1.2 g capsule with XENICAL (120 mg orlistat) at each meal
Method: An overweight human subject is given a therapeutic dose of XENICAL@ (360 mg orlistat per day/three doses of 120 mg orlistat with each meal) to assist in the reduction of body weight.
When these symptoms are first observed, the regimen is modified to a combination of XENICAL® and behenic acid. At each meal, the subject consumes two capsules. The first capsule is XENICAL® (120 mg orlistat) while the second capsule contains the behenic acid (1.2 g). These capsules are co-packaged in a kit for the convenience of the subject.

overweight human subject [3] = test: Example 4: XENICAL regimen with separate magnesium stearate wafer in an overweight human subject; assay type: in vivo
Method: XENICAL® is prescribed to an overweight human subject at a therapeutic dose of 120 mg orlistat taken with each of three daily meals. This dose causes a reduction in the absorption of dietary fat such that total caloric intake by the subject is reduced by approximately 10%, relative to the subjects normal dietary energy intake. […] In particular, magnesium stearate is provided at an amount of 1 gram incorporated into a wafer that is consumed with each meal, resulting in a total consumption of 3 grams per day of magnesium stearate. […] The efficacy of the XENICAL® is unaffected by the addition of magnesium stearate to the diet.

With CCCCCCCCCCCC(CC1OC(=O)C1CCCCCC)OC(=O)C(CC(C)C)NC=O (stereo not shown) [orlistat, tetrahydrolipstatin] the “mean fur appearance score” value [1] was 2.4.

In the case of CCCCCCCCCCCCCCCCCCCCCC(=O)O [behenic acid], the “state of the excreted fat” value (overweight human subject [2]) is reported as “stiffened”.

In the case of magnesium stearate, the “effect on gastrointestinal discomfort and anal leakage of unabsorbed oil” value (overweight human subject [3]; 1 gram magnesium stearate in a wafer with each meal (3 grams per day), together with XENICAL) is reported as “prevents the gastrointestinal discomfort and anal leakage of unabsorbed oil” and the “efficacy of XENICAL on addition of magnesium stearate to the diet” value (overweight human subject [3]; 3 grams per day magnesium stearate with XENICAL 120 mg orlistat per meal) is reported as “unaffected”.
